In publication PMC12469503, “Exploring the Antimicrobial and Antiviral Properties of Cryptic Peptides from Human Fibrinogen” (International Journal of Molecular Sciences, 2025):
Like-named read-outs stand apart in the source and are kept apart here. Ends that are not written are not given here.

What was measured:
[1] = system: Pseudomonas aeruginosa PAO1
[2] = system: Pseudomonas aeruginosa PAO1; conditions: for MIC: Table 2, Pseudomonas aeruginosa PAO1
[3] = system: Staphylococcus aureus ATCC 6538P; conditions: for MBC/MIC: Table 2, Staphylococcus aureus ATCC 6538P; for MBC: ATCC 6538
[4] = system: Staphylococcus aureus ATCC 6538P; conditions: ATCC 6538
[5] = system: Salmonella typhimurium ATCC 14028; assay: MIC, broth microdilution; format: cell-based; conditions: Table 1; for MIC S. typ.: broth microdilution, Nutrient Broth 0.5×, overnight 37 °C, minimum of three independent experiments
Method: MIC values were determined on Gram-positive and Gram-negative bacteria by the broth microdilution method for antimicrobial peptides previously described [33, 89] with minor modifications.
Bacterial strains were grown in Luria-Bertani (LB) medium overnight at 37 °C and then diluted in Nutrient Broth at a final concentration of ~5 × 10^5 CFU/mL per well. Twofold serial dilutions of peptides were carried out in the test wells to obtain concentrations ranging from 50 μM to 0.05 μM. Plates were incubated overnight at 37 °C.
MIC value was defined as the lowest concentration at which growth was inhibited. Three independent experiments were performed for each MIC value.

[6] = system: Enterococcus faecalis ATCC 29212
[7] = system: Acinetobacter baumanii ATCC 17878
[8] = system: Pseudomonas aeruginosa PA14
[9] = system: Salmonella enteriditis 706 RIVM
[10] = system: Pseudomonas aeruginosa RP73 (clinical isolate)
[11] = system: Escherichia coli ATCC 25922
[12] = system: Klebsiella pneumonia ATCC 700603; conditions: for MIC K. pne.: ATCC 700603
[13] = format: physicochemical
Text: The six peptides were produced in the recombinant form by using a previously described strategy that exploit the frog protein onconase (ONC) as a carrier to drive the peptide to inclusion bodies. The fusion proteins were expressed in Escherichia coli strain BL21DE3, using the pET22b(+) vector and named: ONC-DCless-H6-(P)FIBα-GVV27, ONC-DCless-H6-(P)FIBα-SFR22, ONC-DCless-H6-(P)FIBβ-GVV28, ONC-DCless-H6-(P)FIBβ-NWK23, ONC-DCless-H6-(P)FIBγ-GII30, ONC-DCless-H6-(P)FIBγ-TWK25 (nucleotide and amino acid sequences are reported in Supplementary Figure S1). […] Peptides were released by hydrolysis of an acidic labile “Asp-Pro” sequence leading to recombinant peptides endowed with an additional Pro residue at the N-terminus. Thus, the recombinant forms of these peptides are herein named (P)FIBα-GVV27, (P)FIBα-SFR22, (P)FIBβ-GVV28, (P)FIBβ-NWK23, (P)FIBγ-GII30, (P)FIBγ-TWK25. Hydrolysis efficiencies of 95% were estimated for all the recombinant proteins (Supplementary Figure S3). To purify the recombinant peptides from the hydrolysis mixtures, the carrier and the uncleaved fusion protein were selectively precipitated by increasing the pH to 7 exploiting the fact that ONC is insoluble at pH higher than 5, whereas most AMPs are soluble also at neutral pH. […] Therefore, purification of (P)FIBα-SFR22, (P)FIBα-GVV27, (P)FIBβ-NWK23 and (P)FIBγ-TWK25 was first performed by selective precipitation, to remove the carrier and the uncleaved fusion protein, followed by Reverse Phase High-Performance Liquid Chromatography (RP-HPLC) on a C18 column, whereas purification of (P)FIBβ-GVV28 and (P)FIBγ-GII30 was performed directly by RP-HPLC omitting the selective precipitation step. Final yields of all recombinant peptides ranged from approximately 6 to 12 mg per liter of LB culture. Peptide purity, as determined by RP-HPLC, typically varied between 95% and 99% (Supplementary Figure S4).
Peptides (P)FIBα-GVV27, (P)FIBα-SFR22, (P)FIBβ-NWK23 and (P)FIBγ-TWK25 were separated from the carrier and the uncleaved fusion proteins as previously described. The hydrolysis mixture was neutralized to pH 7–7.2 by adding 1 M NH3 and incubated for 1 h at 25 °C under nitrogen atmosphere in a water bath. […] Supernatant and insoluble fraction were analyzed by SDS-PAGE. Concentration of the peptide into the soluble fraction was determined by spectrophotometric analyses using extinction coefficients (Supplementary Table S1) calculated by the ProtParam tool. After the selective precipitation step, purification of the peptide was performed by RP-HPLC. The linear gradients used are listed in Supplementary Table S2. Purification of (P)FIBβ-GVV28 and (P)FIBγ-GII30 was performed directly by RP-HPLC, omitting the selective precipitation step. Purified peptides were lyophilized and dissolved in deionized water. Samples were stored at −80 °C under nitrogen atmosphere. Purity of peptides was evaluated by RP-HPLC on Europa Protein 300 C18 column (5 μm, 25 × 1) using the linear gradients listed in Supplementary Table S2. The identity of the peptides was confirmed by mass spectrometry.

HCoV-229E = conditions: Vero cells; for antiviral activity against HCoV-229E: co-treatment assay, from 50 μM peptide
[14] = system: P. aeruginosa PAO1 biofilm; assay: Antibiofilm attachment assay, confocal microscopy; conditions: peptide 20 µM added with bacteria, stained after 4 h, Live/Dead BacLight, three independent experiments, t-test vs control
[15] = system: P. aeruginosa PAO1 biofilm; assay: Antibiofilm detachment assay, confocal microscopy; conditions: peptide 20 µM on 24 h pre-formed biofilm, further 24 h, Live/Dead BacLight, three independent experiments
[16] = Table 2, Pseudomonas aeruginosa PAO1
[17] = Table 1, broth microdilution, Nutrient Broth 0.5×, overnight 37 °C, minimum of three independent experiments
[18] = Table 1, broth microdilution, Nutrient Broth 0.5×, ~5 × 10^5 CFU/mL, overnight 37 °C, minimum of three independent experiments
[19] = Table 1, control antibiotic, twofold dilutions from 64 µg/mL

Compound	MBC/MIC [1, 16]	MBC/MIC [3]	MIC S. aur. [4] [µM]	MIC S. typ. [5] [µM]	MIC E. fae. ([6]; ATCC 29212) [µM]	MIC PA14 ([8]; PA14) [µM]	MIC PAO1 [2] [µM]	MIC RP73 ([10]; RP73 (clinical isolate)) [µM]	MIC E. coli ([11]; ATCC 25922) [µM]	MIC K. pne. [12] [µM]	MIC E. fae. [6, 17] [µM]	MIC A. bau. [7, 17] [µM]	MIC PA14 [8, 17] [µM]	MIC S. ent. [9] [µM]	further results
CC[C@H](C)[C@H](NC(=O)[C@H](CCCCN)NC(=O)[C@H](CCC(=O)O)NC(=O)[C@H](CCCCN)NC(=O)[C@H](CO)NC(=O)[C@H](CCCCN)NC(=O)[C@H](CCCNC(=N)N)NC(=O)[C@H](Cc1ccccc1)NC(=O)[C@H](Cc1ccccc1)NC(=O)[C@H](CC(=O)O)NC(=O)CNC(=O)[C@H](CC(C)C)NC(=O)[C@@H](N)CC(C)C)C(=O)NCC(=O)N[C@@H](CCCCN)C(=O)N[C@@H](CCC(=O)O)C(=O)N[C@@H](Cc1ccccc1)C(=O)N[C@@H](CCCCN)C(=O)N[C@@H](CCCNC(=N)N)C(=O)N[C@H](C(=O)N[C@H](C(=O)N[C@@H](CCC(N)=O)C(=O)N[C@@H](CCCNC(=N)N)C(=O)N[C@H](C(=O)N[C@@H](CCCCN)C(=O)N[C@@H](CC(=O)O)C(=O)N[C@@H](Cc1ccccc1)C(=O)N[C@@H](CC(C)C)C(=O)N[C@@H](CCCNC(=N)N)C(=O)N[C@@H](CC(N)=O)C(=O)N[C@@H](CC(C)C)C(=O)N[C@H](C(=O)N1CCC[C@H]1C(=O)N[C@@H](CCCNC(=N)N)C(=O)N[C@H](C(=O)N[C@@H](CCC(=O)O)C(=O)N[C@@H](CO)C(=O)O)[C@@H](C)O)C(C)C)[C@@H](C)CC)C(C)C)[C@@H](C)CC [LL37, reference compound]															MBC ([1]; Table 2, Pseudomonas aeruginosa PAO1, […], subculture on LB agar): 1.56 µM; MIC ([2]; minimum of three independent experiments): 1.56 µM
NC[C@H]1O[C@H](O[C@H]2[C@H](O)[C@@H](O[C@H]3O[C@H](CO)[C@@H](O)[C@H](N)[C@H]3O)[C@H](N)C[C@@H]2N)[C@H](N)C[C@@H]1O [Tobramycin]	2	2													
Colistin [reference compound]	1														MBC ([1]; Table 2, Pseudomonas aeruginosa PAO1, antibiotics): 0.5 µg/mL; MIC ([2]; antibiotics): 0.5 µg/mL
GVVWMNWKGSWYSMRKMSMKIRPFFPQQ [FIBβ-GVV28]			3.12	12.5	6.25	6.25	6.25	6.25	6.25	25					MIC A. bau. ([7]; ATCC 17878): 6.25 µM; MIC S. ent. [9, 17]: 12.5 µM
GVVWVSFRGADYSLRAVRMKIRPLVTQ [FIBα-GVV27]			6.25	6.25			6.25	3.12	12.5	25	6.25	6.25	6.25	12.5	
H-PGIIWATWKTRWYSMKKTTMKIIPFNRLTIG [(P)FIBγ-GII30]	1	1	6.25	6.25			12.5	3.12	12.5	25	6.25	6.25	6.25	12.5	MBC ([1]; PAO1): 12.5 µM; solubility / aggregation at pH 7 [13]: particularly prone to aggregation and precipitation; antiviral activity against HCoV-229E (HCoV-229E): strong antiviral activity; IC50 (HCoV-229E; read-out: IC50 against HCoV-229E, virus pre-treatment assay (virus incubated with peptide at 37 °C before infection)): 1.3 µM; MBC [3]: 6.25 µM; fluorescence signal of SYTO 9 (live cells), attachment assay [14]: significantly reduced
H-PGVVWVSFRGADYSLRAVRMKIRPLVTQ [(P)FIBα-GVV27]	1	1	6.25	6.25			6.25	3.12	12.5	50	6.25	6.25	6.25	12.5	MBC ([1]; PAO1): 6.25 µM; solubility / aggregation at pH 7 [13]: soluble at pH 7; SYTO 9 / PI signal, detachment assay [15]: reduction of the SYTO 9 signal coupled with an increase of the PI signal; antiviral activity against HCoV-229E (HCoV-229E): strong antiviral activity; MBC [3]: 6.25 µM; fluorescence signal of SYTO 9 (live cells), attachment assay [14]: significantly reduced
H-PNWKGSWYSMRKMSMKIRPFFPQQ [(P)FIBβ-NWK23]	1	1	3.12	6.25		3.12	6.25	3.12		25	6.25	6.25		12.5	MBC ([1]; PAO1): 6.25 µM; solubility / aggregation at pH 7 [13]: soluble at pH 7; antiviral activity against HCoV-229E (HCoV-229E): absence of efficacy; MBC [3]: 3.12 µM; fluorescence signal of SYTO 9 (live cells), attachment assay [14]: lower, not significant reduction; MIC E. coli [11, 18]: 6.25 µM
NWKGSWYSMRKMSMKIRPFFPQQ [FIBβ-NWK23]			3.12	12.5	6.25	3.12	6.25	6.25	6.25	25					MIC A. bau. ([7]; ATCC 17878): 6.25 µM; MIC S. ent. [9, 17]: 12.5 µM
Polymyxin B [reference compound]															MIC S. typ. (antibiotics) ([5]; control antibiotic, twofold dilutions from 64 µg/mL): 0.12 µg/mL; MIC A. bau. (antibiotics) [7, 19]: 0.5 µg/mL; MIC PA14 (antibiotics) [8, 19]: 0.25 µg/mL; MIC S. ent. (antibiotics) [9, 19]: 0.5 µg/mL; MIC PAO1 (antibiotics) [2, 19]: 0.25 µg/mL; MIC RP73 (antibiotics) [10, 19]: 0.12 µg/mL; MIC E. coli (antibiotics) [11, 19]: 0.5 µg/mL; MIC K. pne. (antibiotics) [12, 19]: 0.5 µg/mL
SFRGADYSLRAVRMKIRPLVTQ [FIBα-SFR22]			12.5	50	6.25	12.5	12.5	12.5	25	>50				50	MIC A. bau. ([7]; ATCC 17878): 25 µM
TWKTRWYSMKKTTMKIIPFNRLTIG [FIBγ-TWK25]			1.56	3.12	6.25		3.12			6.25		3.12	3.12	6.25	MIC RP73 [10, 17]: 3.12 µM; MIC E. coli [11, 18]: 3.12 µM
